Test system: male Sprague Dawley rats
Assay: Manual palpation scoring of spinal fusion strength after decortication in rats
Assay type: in vivo, rat
Procedure: Twelve male Sprague Dawley rats, each weighing approximately 500 grams were selected. Each rat underwent anesthesia with Nembutal (50 mg/kg i.p.). Incision over two regions, the thoracic and lumbar, of the spine in each animal were made. Each incision allowed for the exposure of spinous processes and lamina of at east 2 levels per region. Decortication was carried out at each thoracic and lumbar region using a high-speed drill. Over the decorticated levels, nothing, gelmatrix, gelmatrix plus 8 mg lovastatin or gelmatrix plus 16 mg lovastatin were added. 8 mg I.M. of antibiotic Cefazolin™ was subcutaneously administered to each rat.
For purposes of analysis, the rats were divided into three groups. Group A consisting of rats 1-4 was treated with nothing or gelmatrix. Group B consisting of rats 5-8 was treated with gelmatrix and 8 mg of lovastatin. And, group C consisting of rats 9-12 was treated with gelmatrix and 16 mg of lovastatin. The following is a summary of the data:
After en bloc removal, two observers manually palpated the spine of each rat in a blinded fashion. Palpation was made by flexion and extension at the level of the arthrodesis and at the adjacent levels proximally and distally. […] Each motion segment was graded on a qualitative scale (0-3) based on the strength of the fusion. A solid fusion having no motion was given a score of 3. […] No fusion was scored as a 0. […]

## CC[C@H](C)C(=O)O[C@H]1C[C@@H](C)C=C2C=C[C@H](C)[C@H](CC[C@@H]3C[C@@H](O)CC(=O)O3)[C@H]21 [lovastatin]
Gelmatrix plus 8 mg or 16 mg lovastatin over decorticated thoracic or lumbar levels, blinded manual palpation, scale 0-3
  rats treated with lovastatin that had a stronger fusion at the treated region than rats not treated: seventy five
Gelmatrix plus 8 mg vs 16 mg lovastatin, FIG. 11
  dose dependence of fusion grades (palpation score 0-3): dose dependent
